Source: ChEMBL document CHEMBL3860060, “Discovery and Optimization of 1-Phenoxy-2-aminoindanes as Potent, Selective, and Orally Bioavailable Inhibitors of the Na+/H+ Exchanger Type 3 (NHE3)” (J Med Chem, 2016)
The source made the active and inactive calls. The calls are words filed in the database; no cut-off is given here.

Columns and labels:
[1] = Drug metabolism in mouse hepatic microsomes assessed as compound lability by LC-MS/MS method; format: ADME, Microsome; conditions: liver microsomes, read-out: Drug metabolism
[2] = Toxicity in Xenopus laevis at 62.5 ug/ml by FETAX assay
[3] = Drug metabolism in pig hepatic microsomes assessed as glucuronidation by LC-MS/MS method; format: ADME, Sus scrofa, Liver, Microsome
[4] = molecular target: Cytochrome P450 2C9 (Homo sapiens, UniProt P11712); experiment: Inhibition of CYP2C9 in pooled human hepatic microsomes using diclofenac substrate in presence of NADPH; format: ADME, Liver
[5] = molecular target: Sodium/hydrogen exchanger 3 (Rattus norvegicus, UniProt P26433); experiment: Inhibition of rat NHE3 expressed in LAP1 cell assessed as intracellular pH recovery measured for 2 mins by CECF-AM dye based FLIPR assay
[6] = Inhibition of cat NHE3 expressed in LAP1 cell assessed as intracellular pH recovery measured for 2 mins by CECF-AM dye based FLIPR assay; conditions: Felis catus, LAP1, 2 min
[7] = Drug metabolism in Landrance pig hepatic microsomes assessed as compound lability by LC-MS/MS method; format: ADME, Sus scrofa, Microsome; conditions: Landrace, liver microsomes, read-out: Drug metabolism
[8] = Inhibition of PDE4 (unknown origin); set-up: species or system Homo sapiens
[9] = Drug metabolism in hamster hepatic microsomes assessed as glucuronidation by LC-MS/MS method; format: ADME, Liver, Microsome; conditions: cricetinae
[10] = Inhibition of GABA-gated chloride channel (unknown origin); set-up: species or system Homo sapiens
[11] = Drug metabolism in human hepatic microsomes assessed as glucuronidation by LC-MS/MS method; format: ADME, Liver, Microsome
[12] = Drug metabolism in monkey hepatic microsomes assessed as glucuronidation by LC-MS/MS method; format: ADME, Macaca mulatta, Liver, Microsome; conditions: rhesus monkey
[13] = Drug metabolism in human hepatic microsomes assessed as compound lability in presence of CYP3A4 inhibitor ketoconazole by LC-MS/MS method; format: ADME, Microsome; conditions: liver microsomes, with ketoconazole (CYP3A4 inhibitor), concentration not stated, read-out: Drug metabolism
[14] = test system: Salmonella typhimurium; experiment: Genotoxicity in Salmonella typhimurium at 300 ug/ml by AMES II test; format: toxicity, organism-based; conditions: salmonella enterica subsp. enterica serovar typhimurium
[15] = molecular target: Sodium/hydrogen exchanger 1 (Homo sapiens, UniProt P19634); experiment: Inhibition of human NHE1 expressed in LAP1 cell assessed as intracellular pH recovery measured for 2 mins by CECF-AM dye based FLIPR assay
[16] = Drug metabolism in guinea pig hepatic microsomes assessed as glucuronidation by LC-MS/MS method; format: ADME, Cavia porcellus, Liver, Microsome
[17] = molecular target: T1, Sodium/hydrogen exchanger 2 (Homo sapiens, UniProt Q9UBY0); experiment: Inhibition of human NHE2 expressed in LAP1 cell assessed as intracellular pH recovery measured for 2 mins by CECF-AM dye based FLIPR assay
T1 sequence (Q9UBY0 whole entry): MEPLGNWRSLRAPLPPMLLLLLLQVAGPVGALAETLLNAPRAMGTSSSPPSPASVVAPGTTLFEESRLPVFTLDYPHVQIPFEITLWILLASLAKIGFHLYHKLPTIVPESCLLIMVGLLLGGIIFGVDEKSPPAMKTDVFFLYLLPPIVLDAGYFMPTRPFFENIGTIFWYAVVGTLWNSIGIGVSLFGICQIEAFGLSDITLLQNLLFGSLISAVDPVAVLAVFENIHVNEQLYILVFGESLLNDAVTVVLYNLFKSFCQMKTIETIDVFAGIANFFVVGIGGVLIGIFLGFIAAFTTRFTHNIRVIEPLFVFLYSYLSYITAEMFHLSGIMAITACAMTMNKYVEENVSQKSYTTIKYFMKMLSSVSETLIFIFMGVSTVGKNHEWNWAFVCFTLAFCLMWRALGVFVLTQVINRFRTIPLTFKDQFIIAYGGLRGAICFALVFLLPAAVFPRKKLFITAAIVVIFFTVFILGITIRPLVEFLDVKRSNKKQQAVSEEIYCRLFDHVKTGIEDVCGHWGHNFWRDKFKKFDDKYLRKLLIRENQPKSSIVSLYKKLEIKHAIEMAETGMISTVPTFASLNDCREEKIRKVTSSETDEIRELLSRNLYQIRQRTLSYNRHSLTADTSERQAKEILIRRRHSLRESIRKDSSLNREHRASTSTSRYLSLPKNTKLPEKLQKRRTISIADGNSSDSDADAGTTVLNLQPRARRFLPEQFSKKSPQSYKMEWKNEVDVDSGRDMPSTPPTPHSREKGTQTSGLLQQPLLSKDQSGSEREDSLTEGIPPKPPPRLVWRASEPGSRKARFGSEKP

[18] = Clearance in human hepatocytes assessed per million cells at 5 uM by LC-MS/MS method; format: ADME, cell-based, Hepatocyte
[19] = Drug metabolism in rabbit hepatic microsomes assessed as compound lability by LC-MS/MS method; format: ADME, Oryctolagus cuniculus, Microsome; conditions: liver microsomes, read-out: Drug metabolism
[20] = Drug metabolism in rat hepatic microsomes assessed as glucuronidation by LC-MS/MS method; format: ADME, Liver, Microsome
[21] = Drug metabolism in hamster hepatic microsomes assessed as compound lability by LC-MS/MS method; format: ADME, Microsome; conditions: cricetinae, liver microsomes; read-out: Drug metabolism
[22] = Drug metabolism in guinea pig hepatic microsomes assessed as compound lability by LC-MS/MS method; format: ADME, Cavia porcellus, Microsome; conditions: liver microsomes, read-out: Drug metabolism
[23] = Drug metabolism in macaque hepatic microsomes assessed as compound lability by LC-MS/MS method; format: ADME, Macaca mulatta, Microsome; conditions: rhesus monkey, liver microsomes; read-out: Drug metabolism
[24] = Drug metabolism in mini pig hepatic microsomes assessed as glucuronidation by LC-MS/MS method; format: ADME, Sus scrofa, Liver, Microsome
[25] = Drug metabolism in rabbit hepatic microsomes assessed as glucuronidation by LC-MS/MS method; format: ADME, Oryctolagus cuniculus, Liver, Microsome
[26] = molecular target: T2, Sodium/hydrogen exchanger 5 (Homo sapiens, UniProt Q14940); experiment: Inhibition of human NHE5 expressed in LAP1 cell assessed as intracellular pH recovery measured for 2 mins by CECF-AM dye based FLIPR assay
T2 sequence (Q14940 whole entry): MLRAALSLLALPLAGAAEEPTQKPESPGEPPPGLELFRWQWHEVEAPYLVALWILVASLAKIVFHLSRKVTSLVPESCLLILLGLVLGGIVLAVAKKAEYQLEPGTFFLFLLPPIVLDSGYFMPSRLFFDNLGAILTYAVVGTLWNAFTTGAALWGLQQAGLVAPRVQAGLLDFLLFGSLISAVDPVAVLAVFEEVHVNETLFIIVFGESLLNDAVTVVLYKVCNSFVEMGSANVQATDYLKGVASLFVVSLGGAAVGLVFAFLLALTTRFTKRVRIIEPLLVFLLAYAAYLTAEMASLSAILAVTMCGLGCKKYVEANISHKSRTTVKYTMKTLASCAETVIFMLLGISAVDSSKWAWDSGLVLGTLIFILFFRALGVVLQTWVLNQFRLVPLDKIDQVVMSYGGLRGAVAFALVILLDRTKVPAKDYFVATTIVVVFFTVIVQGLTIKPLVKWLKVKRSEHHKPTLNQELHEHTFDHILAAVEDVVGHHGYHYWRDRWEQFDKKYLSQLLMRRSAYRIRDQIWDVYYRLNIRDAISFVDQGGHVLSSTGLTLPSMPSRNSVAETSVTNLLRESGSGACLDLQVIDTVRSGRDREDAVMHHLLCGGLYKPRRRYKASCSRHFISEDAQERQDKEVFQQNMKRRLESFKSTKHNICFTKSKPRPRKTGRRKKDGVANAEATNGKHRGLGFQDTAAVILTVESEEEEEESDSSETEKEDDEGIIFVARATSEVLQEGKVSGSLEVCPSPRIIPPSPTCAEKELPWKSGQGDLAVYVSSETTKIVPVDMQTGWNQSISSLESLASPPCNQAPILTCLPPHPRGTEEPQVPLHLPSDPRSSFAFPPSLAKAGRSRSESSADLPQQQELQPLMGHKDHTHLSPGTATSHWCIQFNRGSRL

[27] = Drug metabolism in rat hepatic microsomes assessed as compound lability by LC-MS/MS method; format: ADME, Microsome; conditions: liver microsomes, read-out: Drug metabolism
[28] = molecular target: T3, Sodium/hydrogen exchanger isoform 3 (Sus scrofa, UniProt Q9XSD0); experiment: Inhibition of pig NHE3 expressed in LAP1 cell assessed as intracellular pH recovery measured for 2 mins by CECF-AM dye based FLIPR assay
T3 sequence (Q9XSD0 whole entry): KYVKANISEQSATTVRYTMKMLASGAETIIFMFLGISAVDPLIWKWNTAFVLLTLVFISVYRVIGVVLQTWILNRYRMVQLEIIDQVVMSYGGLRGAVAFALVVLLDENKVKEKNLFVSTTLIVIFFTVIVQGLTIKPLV

[29] = Drug metabolism in dog hepatic microsomes assessed as glucuronidation by LC-MS/MS method; format: ADME, Canis lupus familiaris, Liver, Microsome
[30] = Drug metabolism in human hepatic microsomes assessed as compound lability by LC-MS/MS method; format: ADME, Microsome; conditions: liver microsomes, read-out: Drug metabolism
[31] = Drug metabolism in mouse hepatic microsomes assessed as glucuronidation by LC-MS/MS method; format: ADME, Liver, Microsome
[32] = molecular target: CYP2D6 (Homo sapiens, UniProt P10635); experiment: Inhibition of CYP2D6 in pooled human hepatic microsomes at 10 uM using dextromethorphan substrate in presence of NADPH; format: ADME; conditions: pooled human liver microsomes, probe dextromethorphan
[33] = Permeability in human Caco2/TC7 cells assessed as total flux at 20 uM incubated for 2 hrs by LC-MS/MS method; format: ADME, cell-based; conditions: Caco-2, read-out: permeability
[34] = molecular target: T4, Sodium/hydrogen exchanger 3 (Homo sapiens, UniProt P48764); experiment: Inhibition of human NHE3 expressed in LAP1 cell assessed as intracellular pH recovery measured for 2 mins by CECF-AM dye based FLIPR assay
T4 sequence (P48764 whole entry): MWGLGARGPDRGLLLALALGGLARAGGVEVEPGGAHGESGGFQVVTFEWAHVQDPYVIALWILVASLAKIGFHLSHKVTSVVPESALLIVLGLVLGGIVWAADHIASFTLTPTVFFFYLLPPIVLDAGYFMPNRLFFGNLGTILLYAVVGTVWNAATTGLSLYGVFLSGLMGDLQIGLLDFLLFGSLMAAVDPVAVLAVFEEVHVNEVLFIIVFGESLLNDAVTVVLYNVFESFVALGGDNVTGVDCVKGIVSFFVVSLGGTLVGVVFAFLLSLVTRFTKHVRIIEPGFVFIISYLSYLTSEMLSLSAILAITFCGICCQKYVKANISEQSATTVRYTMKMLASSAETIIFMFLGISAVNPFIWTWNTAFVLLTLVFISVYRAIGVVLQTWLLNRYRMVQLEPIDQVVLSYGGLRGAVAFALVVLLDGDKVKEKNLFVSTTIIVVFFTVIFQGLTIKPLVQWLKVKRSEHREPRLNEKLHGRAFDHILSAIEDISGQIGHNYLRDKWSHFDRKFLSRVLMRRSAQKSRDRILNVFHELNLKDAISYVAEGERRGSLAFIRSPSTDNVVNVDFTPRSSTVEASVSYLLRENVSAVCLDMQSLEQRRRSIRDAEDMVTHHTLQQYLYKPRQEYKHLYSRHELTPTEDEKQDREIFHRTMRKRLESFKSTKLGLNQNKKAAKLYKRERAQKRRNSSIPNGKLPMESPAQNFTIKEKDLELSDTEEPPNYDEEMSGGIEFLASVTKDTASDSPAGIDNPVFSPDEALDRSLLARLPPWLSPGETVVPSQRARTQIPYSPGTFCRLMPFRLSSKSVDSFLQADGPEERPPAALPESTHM

[35] = molecular target: Cytochrome P450 2D6 (Homo sapiens, UniProt P10635)
Description: Inhibition of CYP2D6 in pooled human hepatic microsomes using dextromethorphan substrate in presence of NADPH

[36] = species: Homo sapiens; experiment: Inhibition of GABA-gated chloride channel (unknown origin) at 10 uM
[37] = test system: Sus scrofa; experiment: Inhibition of upper airway collapsibility in urethane-chloralose anesthetized pig at 3 mg/kg, id after 4 hrs; format: functional, organism-based
[38] = species: Homo sapiens; experiment: Inhibition of PDE4 (unknown origin) at 10 uM
[39] = test system: Sus scrofa; experiment: Inhibition of upper airway collapsibility in urethane-chloralose anesthetized pig at 1 mg/kg, id after 4 hrs; format: functional, organism-based

Sodium/hydrogen exchanger 3 (Rattus norvegicus, UniProt P26433), sequence (P26433 whole entry): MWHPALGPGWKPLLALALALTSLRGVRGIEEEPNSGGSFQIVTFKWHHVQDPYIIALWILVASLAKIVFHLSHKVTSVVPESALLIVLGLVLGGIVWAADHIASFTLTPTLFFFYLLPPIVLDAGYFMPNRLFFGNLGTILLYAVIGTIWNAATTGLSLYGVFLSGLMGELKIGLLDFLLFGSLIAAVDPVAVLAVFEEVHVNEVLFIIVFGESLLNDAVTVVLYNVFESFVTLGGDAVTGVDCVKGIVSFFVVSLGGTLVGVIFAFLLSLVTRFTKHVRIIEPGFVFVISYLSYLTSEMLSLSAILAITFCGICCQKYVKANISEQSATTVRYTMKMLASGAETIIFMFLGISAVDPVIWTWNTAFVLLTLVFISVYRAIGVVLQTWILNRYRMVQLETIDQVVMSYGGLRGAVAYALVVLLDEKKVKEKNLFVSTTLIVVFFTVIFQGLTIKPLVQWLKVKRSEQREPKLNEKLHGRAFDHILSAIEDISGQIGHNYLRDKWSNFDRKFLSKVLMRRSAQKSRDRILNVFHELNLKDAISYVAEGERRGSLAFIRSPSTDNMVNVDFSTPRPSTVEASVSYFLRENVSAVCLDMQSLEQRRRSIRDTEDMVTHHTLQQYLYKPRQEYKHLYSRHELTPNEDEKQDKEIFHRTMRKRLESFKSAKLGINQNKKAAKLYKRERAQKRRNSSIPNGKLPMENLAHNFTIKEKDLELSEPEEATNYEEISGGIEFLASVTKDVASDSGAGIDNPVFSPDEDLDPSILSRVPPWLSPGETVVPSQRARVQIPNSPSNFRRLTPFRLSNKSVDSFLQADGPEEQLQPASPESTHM
Cytochrome P450 2C9, sequence (P11712 whole entry): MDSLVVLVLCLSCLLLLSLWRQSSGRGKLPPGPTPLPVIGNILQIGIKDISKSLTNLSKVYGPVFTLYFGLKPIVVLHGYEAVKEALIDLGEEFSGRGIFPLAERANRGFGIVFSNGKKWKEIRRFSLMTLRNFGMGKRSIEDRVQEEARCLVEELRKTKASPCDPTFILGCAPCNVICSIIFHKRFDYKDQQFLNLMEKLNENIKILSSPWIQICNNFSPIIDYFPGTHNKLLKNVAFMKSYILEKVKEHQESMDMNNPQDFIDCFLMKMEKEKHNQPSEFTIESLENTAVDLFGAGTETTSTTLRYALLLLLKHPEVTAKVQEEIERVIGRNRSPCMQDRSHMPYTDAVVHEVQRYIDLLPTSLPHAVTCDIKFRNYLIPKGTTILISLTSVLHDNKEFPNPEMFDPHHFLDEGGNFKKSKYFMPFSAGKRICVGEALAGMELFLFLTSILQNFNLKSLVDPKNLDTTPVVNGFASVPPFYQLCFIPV
Sodium/hydrogen exchanger 1, sequence (P19634 whole entry): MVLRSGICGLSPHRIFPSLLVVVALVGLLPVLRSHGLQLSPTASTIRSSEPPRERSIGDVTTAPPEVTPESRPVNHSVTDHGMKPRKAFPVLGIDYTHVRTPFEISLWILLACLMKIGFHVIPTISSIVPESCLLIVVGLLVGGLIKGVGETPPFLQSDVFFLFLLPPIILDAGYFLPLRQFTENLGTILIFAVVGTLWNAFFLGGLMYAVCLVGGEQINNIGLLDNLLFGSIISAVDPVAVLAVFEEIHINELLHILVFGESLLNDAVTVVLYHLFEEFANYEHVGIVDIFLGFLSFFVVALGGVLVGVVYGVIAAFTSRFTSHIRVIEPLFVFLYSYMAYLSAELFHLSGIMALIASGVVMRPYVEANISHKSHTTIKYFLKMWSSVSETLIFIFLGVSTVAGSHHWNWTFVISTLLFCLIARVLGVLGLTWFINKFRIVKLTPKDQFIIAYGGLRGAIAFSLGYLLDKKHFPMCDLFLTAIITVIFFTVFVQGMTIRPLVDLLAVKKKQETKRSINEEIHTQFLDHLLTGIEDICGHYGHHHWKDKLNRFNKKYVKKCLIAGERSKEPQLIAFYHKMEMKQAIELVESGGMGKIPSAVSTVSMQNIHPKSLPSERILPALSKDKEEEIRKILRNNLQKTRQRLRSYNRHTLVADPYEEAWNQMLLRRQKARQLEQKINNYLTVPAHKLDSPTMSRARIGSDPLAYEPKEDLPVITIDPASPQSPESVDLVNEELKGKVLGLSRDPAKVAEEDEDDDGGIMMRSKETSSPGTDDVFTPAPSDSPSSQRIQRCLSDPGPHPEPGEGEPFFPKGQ
CYP2D6, sequence (P10635 whole entry): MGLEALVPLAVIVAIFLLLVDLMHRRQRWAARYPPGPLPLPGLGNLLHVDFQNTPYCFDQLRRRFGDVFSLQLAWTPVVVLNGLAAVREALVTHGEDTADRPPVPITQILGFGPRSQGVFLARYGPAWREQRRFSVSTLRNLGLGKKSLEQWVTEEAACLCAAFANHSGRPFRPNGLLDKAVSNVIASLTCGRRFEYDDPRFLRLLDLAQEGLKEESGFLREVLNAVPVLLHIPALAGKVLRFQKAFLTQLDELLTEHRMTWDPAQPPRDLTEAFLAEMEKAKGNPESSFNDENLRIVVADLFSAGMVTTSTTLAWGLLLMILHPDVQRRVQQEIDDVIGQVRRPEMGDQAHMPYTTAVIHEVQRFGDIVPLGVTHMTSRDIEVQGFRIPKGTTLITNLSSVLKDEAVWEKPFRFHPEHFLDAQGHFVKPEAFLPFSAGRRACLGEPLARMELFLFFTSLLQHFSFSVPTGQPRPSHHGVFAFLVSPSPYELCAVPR
Cytochrome P450 2D6, sequence (P10635 whole entry): as above

Cc1nnc(C)n1-c1ccc(O[C@H]2c3cc(Cl)cc(Cl)c3C[C@@H]2N2CC[C@@H](O)C2)c(F)c1.Cl
metabolised [1]: 25%
Activity [2]: Non-Toxic
Drug metabolism [3]: Metabolite_Detected
IC50 [4]: 900 nM
IC50 [5]: 10.2 nM
IC50 [6]: 6.1 nM
metabolised [7]: 25%
IC50 [8]: 6600 nM
Drug metabolism [9]: Metabolite_Notdetected
IC50 [10]: 12000 nM
Drug metabolism [11]: Metabolite_Notdetected
Drug metabolism [12]: Metabolite_Detected
metabolised [13]: 5%
Activity [14]: Non-Toxic
IC50 [15]: > 100000 nM
Drug metabolism [16]: Metabolite_Notdetected
IC50 [17]: > 100000 nM
CLH [18]: 0.12 mL/h
metabolised [19]: 25%
Drug metabolism [20]: Metabolite_Notdetected
metabolised [21]: > 60%
metabolised [22]: 25%
metabolised [23]: > 60%
Drug metabolism [24]: Metabolite_Detected
Drug metabolism [25]: Metabolite_Notdetected
IC50 [26]: 291 nM
metabolised [27]: 25%
IC50 [28]: 7.8 nM
Drug metabolism [29]: Metabolite_Notdetected
metabolised [30]: 25%
Drug metabolism [31]: Metabolite_Notdetected

Cc1nnc(C)n1-c1ccc(O[C@H]2c3cc(Cl)cc(Cl)c3C[C@@H]2N2CCCN(C)CC2)cc1
inhibition at 10 µM [32]: 22%
Papp at 2 h, 20 µM [33]: 0.2 ×10⁻⁶ cm/s
IC50 [34]: 17 nM
IC50 [35]: > 10000 nM

Cc1nnc(C)n1-c1ccc(O[C@H]2c3cc(Cl)cc(Cl)c3C[C@@H]2N2CC[C@@H](O)C2)c(F)c1
inhibition [36]: 55%
inhibition [37]: Active
inhibition [38]: 54%
inhibition [39]: Active
